The values below come from PMC5011932, “Comparative pharmacokinetics and pharmacodynamics of intravenous artelinate versus artesunate in uncomplicated Plasmodium coatneyi-infected rhesus monkey model” (Malaria Journal, 2016).

In general, AUC(0-t) refers to the area under the concentration-time curve up to a stated or last time point. Read a low AUC(0-t) as less exposure. In general, AUC(0-inf) refers to the area under the concentration-time curve extrapolated to infinity. A higher AUC(0-inf) goes with high exposure. As usually defined, the Cmax is the maximum level reached in the sampled fluid or tissue. For orientation: half-life means the time needed for the level to fall by half in the phase considered. High values mean slow loss, low ones fast loss.

The conditions of data set [1]: rhesus monkey, in vivo.
Procedure: (§1) These doses were chosen as the minimal effective doses (from previous model development and validation studies, unpublished data) and blood was collected for pharmacokinetic analysis. After a week wash-out and recovery period, P. coatneyi (1 mL of >50,000 parasitized RBCs per microlitre or 5 × 10^6 RBC with a 1 % parasitaemia) were inoculated from a donor monkey into all the monkeys. The treatment was initiated at day 6 after inoculation at a parasitaemia ≥3 % or >200,000 parasites μL^−1 when the cohort of animals was minimally symptomatic. Drugs were given for 3 days with a loading dose initially followed by ½ of the first dose on the 2nd and 3rd days.
(§2) Blood was collected for pharmacokinetic/pharmacodynamics (PK/PD) analysis after the first dose only due to rapid clearance of artemisinin derivatives. Heparinized blood was collected at 0, 5, 20, 40 min, 1, 3, and 6 h post-dose and plasma samples were separated within 2 h by centrifugation (1500g, 10 min). Aliquots of samples were made for simultaneous measurement by HPLC [16] and bioassay [14], and stored at −80 °C until analysis. All glassware was silanized before use with a 0.5 % aqueous solution (v/v) of Pierce Aquasil (Rockford, IL, USA) according to the manufacturer’s recommended procedure. Solid-phase extraction was performed on C-18 elution cartridge (3.0 ml, J.T. Baker Co.) using a VAC ELUTE SPS24 sample processing station (Analytichem International, Harbour City, CA, USA). The cartridge was preconditioned by sequential washing with 2.5 ml acetonitrile, 2.5 ml methanol and 2.5 ml water. One ml of distilled water was added to the cartridge before adding plasma sample (0.5 ml). Then, the cartridge was washed with 2.5 ml distilled water, 2.5 ml of 0.05 % H3PO4 (pH 4.5) and 2.5 ml of 20 % acetonitrile and completely dried by closing the vacuum for 15 min. The analytes were collected by eluting with 0.5 ml methanol three times and then with 0.5 ml 90:10 n-butyl chloride: ethyl acetate twice. The organic phases were pooled. The combined organic phases were then evaporated to dryness under a stream of nitrogen at room temperature. Extraction residues were reconstituted with 50:50 ethanol: water (0.3 ml), at least 16 h before injection. The injection volume was 100 µl for all samples.
(§3) The plasma concentration of parent drugs, AL and AS, and their primary metabolites, DHA and 2-hydroxyartelinate (OHAL) respectively, were measured by HPLC with electrochemical detection in reductive mode (HPLC-ECD) [16], which was the only method for artemisinin compounds then (Additional files 1 and 2).
(§4) HPLC with reductive electrochemical detection was performed using a model BAS 200B liquid chromatography (Bioanalytical Systems, Inc., West Lafayette, Indiana, USA). A Nova-Pak® C18 (3.9 × 150 mm, Waters Corporation, Milford, MA, USA) was used with 40 % acetonitrile in sodium acetate buffer (pH 3.6) as mobile phase. Detection was performed using a thin dual-layer glassy carbon electrode run in parallel mode at a potential of −1.0 V versus Ag/AgCl. The system was operated at the following temperatures: mobile phase 35 °C, column and detector oven 30 °C, cell 31 °C with the flow rate of 1.5 mL min^−1. Artemisinin (ART) was used as an internal standard. Samples were injected via Gilson model 231 XL sampling injector equipped with a 100 µL loop, a Gilson model 401 dilutor/pipettor, a sampler controller keypad (Gilson Medical Electronics, Middleton, WI, USA), and a Valco electrically actuated switching valve (Valco Instrument Co. Inc) was used. This system automatically deoxygenated and injected sample, which permits the high sample throughput associated with automated injection. Data were acquired and analysed using a Millennium^32 Chromatography Manager (Waters Corporation, Milford, MA, USA).
Data set [2] can be described thus: Plasma pharmacokinetics by HPLC-ECD after IV dose in rhesus monkeys. Conditions: for %AUC20 / concentration at 0.08 h / concentration at 0.33 h / concentration at 0.67 h / concentration at 1 h / concentration at 3 h / concentration at 6 h / AUC(0-inf) / Cmax / half-life: mean; for concentration at 0.08 h / concentration at 0.33 h / concentration at 0.67 h / concentration at 1 h / concentration at 3 h / concentration at 6 h / AUC(0-t) / AUC(0-inf) / Cmax / half-life: rhesus monkey, plasma; for concentration at 0.08 h / concentration at 0.33 h / concentration at 0.67 h / concentration at 1 h / concentration at 3 h / concentration at 6 h: intravenous, 8 mg kg^-1, Plasma concentration; for concentration at 0.08 h: after IV AL 11.8 or AS 8.0 mg/kg; for AUC(0-t) / AUC(0-inf) / Cmax / half-life: iv, 8 mg/kg; for AUC(0-t): AUC 0-20, mean; for Cmax: IV AL/Lys 11.8 or AS/Na 8 mg/kg, analyte = label; for half-life: t 1/2, z.
Procedure: as §1, §2, §3, §4

With 2-hydroxyartelinate [OHAL], in data set [1], the “t1/2, metabolite (M)” value was found to be 42.2 min.
Consider `C[C@H]1[C@@H](O)O[C@@H]2O[C@@]3(C)CC[C@H]4[C@H](C)CC[C@@H]1[C@@]24OO3` [DHA, dihydroartemisinin], for which the “Time of highest level post-dose” value in data set [2] (after IV AS) came to 5 min. In data set [2] (healthy rhesus), the “%AUC20” value came to 23.8%, the concentration at 0.08 h is 7.89 µM, the concentration at 0.33 h came to 6.75 µM and the concentration at 0.67 h is 4.51 µM. In data set [2] (healthy rhesus), this molecule showed a concentration at 1 h of 3.52 µM, a concentration at 3 h of 0.31 µM, a concentration at 6 h of 0 nM and an AUC(0-t) of 2.17 µM·h. Moreover, in data set [2] (healthy rhesus), the AUC(0-inf) is 9.28 µM·h, the highest level (Cmax) was 8.1 µM and the half-life was found to be 35.9 min. Besides, in data set [2] (infected rhesus), the “%AUC20” value stood at 27.0%, the concentration at 0.08 h came out at 6.74 µM, the concentration at 0.33 h turned out to be 5.92 µM and the concentration at 0.67 h came to 4.21 µM. In data set [2] (infected rhesus), this molecule gave a concentration at 1 h of 2.68 µM, a concentration at 3 h of 0.16 µM, a concentration at 6 h of 0 nM and an AUC(0-t) of 1.87 µM·h. In data set [2] (infected rhesus), this molecule showed an AUC(0-inf) of 7.45 µM·h and a half-life of 30 min. The molecule also registered a Cmax in data set [2] (P. coatneyi infected rhesus) of 6.85 µM.
